Assay [1] concerns the target Human immunodeficiency virus type 1 reverse transcriptase (Human immunodeficiency virus 1, UniProt Q72547, Y188L). As to the kind of experiment: Inhibitory activity against HIV-1 Y188L reverse transcriptase.
Assay [2] concerns the target Human immunodeficiency virus type 1 reverse transcriptase (Human immunodeficiency virus 1, UniProt Q72547). Briefly: Inhibitory activity against HIV-1 wild-type reverse transcriptase.
Assay [3] has as its target Human immunodeficiency virus type 1 reverse transcriptase (Human immunodeficiency virus 1, UniProt Q72547, K103N). As to the kind of experiment: Inhibitory activity against HIV-1 Mutant Reverse transcriptase K103N.
Assay [4] has as its target Human immunodeficiency virus type 1 reverse transcriptase (Human immunodeficiency virus 1, UniProt Q72547, V106A). As to the kind of experiment: Inhibitory activity against HIV-1 Mutant Reverse transcriptase V106A.
Assay [5] addresses Human immunodeficiency virus type 1 reverse transcriptase (Human immunodeficiency virus 1, UniProt Q72547, Y181C). Briefly: Inhibitory activity against HIV-1 Y181C reverse transcriptase.
Assay [6] addresses Human immunodeficiency virus type 1 reverse transcriptase (Human immunodeficiency virus 1, UniProt Q72547, P236L). Briefly: Inhibitory activity against HIV-1 Mutant Reverse transcriptase P236L.
The target of assay [7] is Human immunodeficiency virus type 1 reverse transcriptase (Human immunodeficiency virus 1, UniProt Q72547, G190A). As to the kind of experiment: Inhibitory activity against HIV-1 Mutant Reverse transcriptase G190A.
The test system of a further assay is C8166. Briefly: Inhibitory activity against HIV-1 IIIB replication in C8166 cells. It is filed as functional, cell-based. Conditions: Homo sapiens.

Bounds are passed on as bounds.

The text below walks through data of ChEMBL document CHEMBL1131047, “Novel nonnucleoside inhibitors of HIV-1 reverse transcriptase. 7. 8-Arylethyldipyridodiazepinones as potent broad-spectrum inhibitors of wild-type and mutant enzymes” (J Med Chem, 1998).

Regarding `CCN1c2ncc(CCc3cccc(N)c3)cc2C(=O)N(C)c2ccc(Cl)nc21`, the IC50 in assay [1] was 250 nM; in assay [2], 120 nM; in assay [3], 10 nM; in assay [4], 90 nM; in assay [5], 230 nM; in assay [6], 40 nM. Moreover, half-maximal inhibition in assay [7] (IC50) required 10 nM.

For the compound `CCN1c2ncc(CCc3ccnc(C)c3)cc2C(=O)N(C)c2ccc(Cl)nc21`, the IC50 in assay [1] is above 1000 nM; in assay [2] it was 60 nM; in assay [5], 140 nM.

As to `CCN1c2ncc(CO)cc2C(=O)N(C)c2cccnc21`, the IC50 worked out at 50 nM in assay [2] and 740 nM in assay [5].

As to `CCN1c2ncc(-c3cccc(OC)c3)cc2C(=O)N(C)c2cccnc21`, the IC50 in assay [2] and in assay [5] was above 1000 nM each time.

On to `CCN1c2ncc(/C=C\c3ccccc3)cc2C(=O)N(C)c2cccnc21`, for which the IC50 in assay [2] amounted to 250 nM; in assay [5], 580 nM.

For `CCN1c2ncc(CCc3ccncc3)cc2C(=O)N(C)c2ccc(F)nc21`, the 50% inhibitory concentration (IC50) in assay [1] came out at 250 nM; in assay [2], 50 nM; in assay [3], 20 nM; in assay [4], 250 nM; in assay [5] it was 80 nM; in assay [6] it was 50 nM. Besides, the concentration for half-maximal inhibition (IC50) in assay [7] came out at 60 nM.

In the case of `CCN1c2ncc(CCCO)cc2C(=O)N(C)c2cccnc21`, the 50% inhibitory concentration (IC50) turned out to be 300 nM in assay [2] and 2900 nM in assay [5].

`CCN1c2ncc(CCc3cccc(NC(N)=O)c3)cc2C(=O)N(C)c2ccc(Cl)nc21`: the IC50 in the assay with C8166 stood at 39 nM; in assay [1], 230 nM; in assay [2], 60 nM; in assay [5], 80 nM.

With `CCN1c2ncc(C)cc2C(=O)N(C)c2cccnc21`, the 50% inhibitory concentration (IC50) was 750 nM in assay [2] and above 1000 nM in assay [5].

On to `CCN1c2ncc(CCc3cncnc3)cc2C(=O)N(C)c2cccnc21`, for which the IC50 in assay [1] is above 1000 nM; in assay [2], 540 nM; in assay [5] it was above 1000 nM.

For `CCN1c2ncc(CCc3ccccc3)cc2C(=O)N(C)c2cccnc21`, the results for the IC50 in assay [2] and in assay [5] were 50 nM and 130 nM, respectively.

On to `CCN1c2ncc(CCC(=O)OC)cc2C(=O)N(C)c2cccnc21`, for which the IC50 in assay [2] was 90 nM; in assay [5], 140 nM.

Regarding `CCN1c2ncc(CCc3ccc(C)cc3)cc2C(=O)N(C)c2ccc(Cl)nc21`, the 50% inhibitory concentration (IC50) was above 1000 nM in assay [1], 230 nM in assay [2] and 1180 nM in assay [5].

Take `CCN1c2ncc(CCc3ccc(NS(C)(=O)=O)cc3)cc2C(=O)N(C)c2ccc(Cl)nc21`: the IC50 was above 1000 nM in assay [1], 330 nM in assay [2] and 560 nM in assay [5].

In the case of `CCN1c2ncc(CCc3ccc4ccccc4c3)cc2C(=O)N(C)c2ccc(F)nc21`, the IC50 was above 1000 nM in assay [1], 20 nM in assay [2] and 30 nM in assay [5].

Consider `CCN1c2ncc(CCc3ccnc(C(=O)OC)c3)cc2C(=O)N(C)c2ccc(Cl)nc21`, for which the results for the half-maximal inhibitory concentration (IC50) in assay [1], in assay [2] and in assay [5] were 6000 nM, 150 nM and 480 nM, respectively.

Take `CCN1c2ncc(CCc3cccnc3)cc2C(=O)N(C)c2cccnc21`: the concentration for half-maximal inhibition (IC50) was above 1000 nM in assay [1], 130 nM in assay [2] and 320 nM in assay [5].

`CCN1c2ncc(CCc3cccc(N)c3)cc2C(=O)N(C)c2cccnc21`: the figures for the IC50 in assay [1], in assay [2] and in assay [5] were above 1000 nM, 40 nM and 70 nM, respectively.

On to `CCN1c2ncc(CCc3ccncc3)cc2C(=O)N(C)c2ccc(C#N)nc21`, for which the half-inhibitory concentration (IC50) is above 1000 nM in assay [1], 460 nM in assay [2] and 290 nM in assay [5].

`CCN1c2ncc(CCc3ccccn3)cc2C(=O)N(C)c2cccnc21`: the 50% inhibitory concentration (IC50) in assay [1] is above 1000 nM; in assay [2], 190 nM; in assay [5], above 1000 nM.

As to `CCN1c2ncc(CCc3cccc(C)c3)cc2C(=O)N(C)c2ccc(Cl)nc21`, the IC50 is above 1000 nM in assay [1], 110 nM in assay [2] and 460 nM in assay [5].

In the assay on C8166, `CCN1c2ncc(CCc3ccccc3)cc2C(=O)N(C)c2ccc(Cl)nc21` yielded an IC50 of 12 nM.

With `CCN1c2ncc(CCc3cccc(F)c3)cc2C(=O)N(C)c2cccnc21`, the IC50 in assay [1] was above 1000 nM; in assay [2], 120 nM; in assay [5], 370 nM.

In the case of `CCN1c2ncc(CCc3ccccc3N)cc2C(=O)N(C)c2cccnc21`, the IC50 in assay [1] was above 1000 nM; in assay [2] it was 80 nM; in assay [5] it was 1700 nM.

`CCN1c2ncc(CCc3ccccc3)cc2C(=O)N(C)c2ccc(C3=CCC=N3)nc21`: the IC50 worked out at 1280 nM in assay [1], 590 nM in assay [2] and 520 nM in assay [5].

Take `CCN1c2ncc(CCc3ccnc(C)c3)cc2C(=O)N(C)c2cccnc21`: the values for the concentration for half-maximal inhibition (IC50) in assay [1], in assay [2] and in assay [5] were above 1000 nM, 30 nM and 90 nM, respectively.

As for `CCN1c2ncc(CCC(N)=O)cc2C(=O)N(C)c2cccnc21`, the IC50 came to 620 nM in assay [2] and 6100 nM in assay [5].

The compound `CCN1c2ncc(N)cc2C(=O)N(C)c2cccnc21` had a half-inhibitory concentration (IC50) in assay [2] of 100 nM.

With `CCN1c2ncc(CCc3ccnc(C(=O)O)c3)cc2C(=O)N(C)c2ccc(Cl)nc21`, the IC50 is above 1000 nM in assay [1], 1500 nM in assay [2] and 3800 nM in assay [5].

Consider `CCN1c2ncc(CCc3ccc4ccccc4c3)cc2C(=O)N(C)c2ccc(Cl)nc21`, for which the 50% inhibitory concentration (IC50) in assay [1] is above 1000 nM; in assay [2] it was 1020 nM; in assay [5] it was 2880 nM.

Consider `CCN1c2ncc(CCc3ccc(C)cc3)cc2C(=O)N(C)c2cccnc21`, for which the 50% inhibitory concentration (IC50) in assay [1] is above 1000 nM; in assay [2], 100 nM; in assay [5], 250 nM.

Turning to `CCN1c2ncc(CCC#N)cc2C(=O)N(C)c2cccnc21`, the IC50 was found to be 210 nM in assay [2] and 2160 nM in assay [5].

In the case of `CCN1c2ncc(Cc3ccccc3)cc2C(=O)N(C)c2cccnc21`, the IC50 in assay [2] worked out at 120 nM; in assay [5], 1200 nM.

For the compound `CCN1c2ncc(CCc3cccc(N=[N+]=[N-])c3)cc2C(=O)N(C)c2ccc(Cl)nc21`, the IC50 in assay [1] was above 1000 nM; in assay [2], 80 nM; in assay [5] it was 160 nM.

Consider `CCN1c2ncc(CCc3ccncc3)cc2C(=O)N(C)c2ccc(I)nc21`, for which the figures for the IC50 in assay [1], in assay [2] and in assay [5] were 430 nM, 90 nM and 180 nM, respectively.

Regarding `CCN1c2ncc(CCc3cccc(C)c3)cc2C(=O)N(C)c2cccnc21`, the half-inhibitory concentration (IC50) is above 1000 nM in assay [1], 110 nM in assay [2] and 280 nM in assay [5].

As to `CCN1c2ncc(CCc3ccncc3)cc2C(=O)N(C)c2cccnc21`, the half-inhibitory concentration (IC50) with C8166 was 25 nM; in assay [1], above 1000 nM; in assay [2] it was 30 nM; in assay [5], 110 nM.

Take `CCN1c2ncc(CCc3ccccc3C)cc2C(=O)N(C)c2cccnc21`: the IC50 in assay [1] is above 1000 nM; in assay [2], 200 nM; in assay [5], 1600 nM.

On to `CCN1c2ncc(CCc3ccncc3)cc2C(=O)N(C)c2ccc(Cl)nc21`, for which the half-inhibitory concentration (IC50) in the assay with C8166 came to 9 nM.

For the compound `CCN1c2ncc(CCO)cc2C(=O)N(C)c2cccnc21`, the IC50 is 430 nM in assay [2] and 2500 nM in assay [5].

For the compound `CCN1c2ncc(CCc3ccc(N)cc3)cc2C(=O)N(C)c2cccnc21`, the IC50 in assay [1] was above 1000 nM; in assay [2], 60 nM; in assay [5] it was 200 nM.

As to `CCN1c2ncc(CCc3ccnc(CO)c3)cc2C(=O)N(C)c2ccc(Cl)nc21`, the IC50 in assay [1] is above 1000 nM; in assay [2] it was 160 nM; in assay [5], 280 nM.

In the case of `CCN1c2ncc(CCc3cccc(NS(C)(=O)=O)c3)cc2C(=O)N(C)c2ccc(Cl)nc21`, the 50% inhibitory concentration (IC50) was above 1000 nM in assay [1], 140 nM in assay [2] and 140 nM in assay [5].

For the compound `CCN1c2ncc(/C=C/C(=O)OC)cc2C(=O)N(C)c2cccnc21`, in assay [2], the IC50 was above 1000 nM.

Consider `CCN1c2ncc(CCc3nccs3)cc2C(=O)N(C)c2cccnc21`, for which the half-inhibitory concentration (IC50) in assay [1] was above 1000 nM; in assay [2] it was 40 nM; in assay [5], 440 nM.

In the case of `CCN1c2ncc(CCc3ccccc3C)cc2C(=O)N(C)c2ccc(Cl)nc21`, the half-inhibitory concentration (IC50) in assay [1], in assay [2] and in assay [5] was above 1000 nM throughout.

`CCN1c2ncc(C(=O)O)cc2C(=O)N(C)c2cccnc21` returned a half-maximal inhibitory concentration (IC50) in assay [2] above 1000 nM.

For `CCN1c2ncc(CCc3ccnc(C(N)=O)c3)cc2C(=O)N(C)c2ccc(Cl)nc21`, the IC50 in assay [1] is 4000 nM; in assay [2], 50 nM; in assay [5], 250 nM.

Regarding `CCN1c2ncc(CCCc3ccccc3)cc2C(=O)N(C)c2cccnc21`, the concentration for half-maximal inhibition (IC50) worked out at 120 nM in assay [2] and 1170 nM in assay [5].

Take `CCN1c2ncc(CCc3ccc(N)cc3)cc2C(=O)N(C)c2ccc(Cl)nc21`: the figures for the IC50 in assay [1], in assay [2] and in assay [5] were above 1000 nM, 160 nM and 360 nM, respectively.

For the compound `CCN1c2ncccc2C(=O)N(C)c2cccnc21`, in assay [2], the IC50 amounted to 90 nM.

In assay [2], `CCN1c2ncc(NC(N)=O)cc2C(=O)N(C)c2cccnc21` had a half-maximal inhibitory concentration (IC50) of 1100 nM.

Regarding `CCN1c2ncc(CCc3ccc4ccccc4c3)cc2C(=O)N(C)c2cccnc21`, the IC50 was above 1000 nM in assay [1], 80 nM in assay [2] and 150 nM in assay [5].

In the case of `CCN1c2ncc(Cl)cc2C(=O)N(C)c2cccnc21`, the values for the 50% inhibitory concentration (IC50) in assay [2] and in assay [5] were 540 nM and above 1000 nM, respectively.

`CCN1c2ncc(/C=C/c3ccncc3)cc2C(=O)N(C)c2cccnc21`: the IC50 in assay [2] is 3000 nM; in assay [5], above 1000 nM.

The term IC50 denotes the midpoint of a concentration-inhibition curve. A high value points to a need for much substance.
